The source of these data is PMC6614837 (Nucleic Acids Research, 2019).

In assay [1] the target is T1, RNase P holoenzyme from Thermotoga maritima (Thermotoga maritima, UniProt Q9X1H4).
T1 construct: made in house
T1 sequence (Q9X1H4 1-117): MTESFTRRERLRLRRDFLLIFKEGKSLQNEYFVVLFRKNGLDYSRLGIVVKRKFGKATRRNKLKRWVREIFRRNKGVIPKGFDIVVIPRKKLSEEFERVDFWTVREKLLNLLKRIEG
As to the kind of experiment: Real-time fluorescence-based RNase P activity assay with bipartite pre-tRNA substrate. The assay is classed as biochemical. The settings on record: fluorescent bipartite pre-tRNA substrate, holoenzyme 33 nM, 10% PEG 200 in place of DMSO. The procedure:
The reconstitution of the RNase P holoenzyme was performed as described in ([40],[19]). This protocol produces a homogeneous and functional ribozyme that can be crystallized by mixing P RNA and P protein in a 1:1.1 molar ratio in 1× TH buffer (33 mM Tris–HCl, 66 mM HEPES, pH 7.4) and 400 mM ammonium acetate (AmOAc). The mixture was heated to 95°C for 2 min in a water bath, then chilled on ice for 2 min, after which MgCl2 was added to a final concentration of 100 mM. […] This higher concentration was used in all experiments described herein. The holoenzyme was further incubated at 50°C for 10 min and 37°C for 40 min. The final concentration of holoenzyme was 333 nM (35.6 μg/ml of P RNA and 4.7 μg/ml of P protein).
The bipartite pre-tRNA substrate derived from pre-tRNA^Phe from T. maritima (Supplementary Figure S13) was designed for the ease of chemical synthesis and conceived from the fact that the anticodon loop is not required for RNase P recognition (Reiter et al.). As for the Mh substrate, fluorescent bipartite pre-tRNA was coupled to Black Hole Quencher 1 (BHQ1) at the 5′-end of the 5′ oligo, and to Alexa Fluor 488 at the 3′-end of the 3′ oligo (see Supplementary Table S1). The probes were purchased from Integrated DNA Technologies (IDT). A requested scale of 250 nmol yielded 27.4 nmol (0.36 mg) for the 5′ oligo and 3.8 nmol (50 μg) for the 3′ fluorescent oligo. Before use, the probes were diluted from a 100 μM stock (dissolved in water) and assembled by mixing and heating to 3.6 μM in activity buffer L (Tris–HCl pH 7.4 33 mM, HEPES 66 mM, 100 mM AmOAc and 10 mM MgCl2).
Reactions were performed in a total volume of 20 μl. Pipetting was done by hand using multichannel pipettes. First, an 18 μl reaction mixture containing 16.5 μl of activity buffer (H for Mh or L supplemented with 10% PEG 200 for bipartite pre-tRNA) and 270 nM (Mh) or 135 nM (bipartite pre-tRNA) (1.5 or 0.7 μl of the 3.6 μM stock) of the fluorescent substrate probe was pre-incubated on ice for at least 5 m in a black polystyrene 384-well microtiter microplate with a flat transparent bottom (Corning ref 3540). The holoenzyme was then added at a final concentration of 33 nM (2 μl of a 333 nM stock) in 1× TH buffer and mixed. Kinetic activity was monitored in a Synergy MX Multimode Detector (BioTek) at 37°C with rapid agitation. At least 20 readings were taken per well every 15 s. The probe was excited at 485 nm, and its emission was monitored at 535 nm with an integration time of 1 s. From the plots of relative fluorescent units (RFU) versus time, linear regression was used to determine the slopes in the linear portion of the curves, using at least 12 data points to obtain initial velocities. Non-linear fitting to obtain the Michaelis–Menten parameters was performed using GraphPad Prism® 6.01 software. […]

The next assay deals with P RNA. As to the kind of experiment: Gel-based activity assay, bipartite pre-tRNA substrate, P RNA alone. The assay is classed as biochemical, T. maritima. The settings on record: 100 mM AmOAc, 10 mM MgCl2. How it is done:
For gel-based activity assays, reactions were prepared as described in the previous section (fluorescence activity assay), incubated for 1–15 min at 37–50°C, then loaded onto a denaturing 7 M urea–20% acrylamide gel in the case of the Mh substrate or 19% acrylamide (40% acrylamide/bisacrylamide 38.5:1.5) for the bipartite pre-tRNA substrate. The activity conditions for the gel reported in Figure 3A, to monitor the cleavage of the holoenzyme and P RNA, were under 100 mM AmOAc and 10 mM MgCl2. The gels (13 × 16 × 0.15 cm) were electrophoresed at 20 V/cm for 2–3 h. UV shadowing or ethidium bromide staining was used to visualize RNA cleavage. Detection of minihelix fluorescence was achieved without staining using a UV lamp with excitation at ∼254 nm.
Figure 3. The inhibitors purpurin and hematein bind to the holoenzyme. (A) Top. […] Bottom. […] (B) The relative affinities of the inhibitors for the P RNA or the holoenzyme differ. Binding sensorgrams obtained by biolayer interferometry (BLI). P RNA or RNase P holoenzyme was immobilized on super streptavidin (SSA) biosensors through a 5′-biotinylated RNA oligonucleotide complementary to a region on the P1 stem of P RNA (see Materials and Methods). […] In contrast, gentian violet binds not only to P RNA but also to the Mh substrate (Supplementary Figure S16). (C) Molecular Dynamics (MD) simulations of RNase P protein in complex with the validated inhibitors. In each panel, semitransparent spheres represent the geometric center, over a 200 ns trajectory, of the corresponding tested compound. The 5′-leader (yellow) is shown for reference purposes only; it was not included in the simulation. Sphere color coding indicates the starting and final positions in blue and red, respectively. […] Purpurin's starting conformation corresponds to that observed in the crystal structure in complex with the P protein (PDB code: 6MAX. See Figure 5).

As usually defined, the IC50 is the concentration that gives 50% inhibition. On to `O=C1c2ccccc2C(=O)c2c(O)c(O)cc(O)c21` [Purpurin, 1,2,4-trihydroxyanthraquinone], for which the IC50 in assay [1] came out at 13.1 ± 2.3 µM. The “Inhibition of the P RNA reaction” value in the assay with P RNA was “not the P RNA alone”.
Take `O=C1C=C2CC3(O)COc4c(ccc(O)c4O)C3=C2C=C1O` (stereo not drawn) [Hematein, 3,4,6a,10-tetrahydroxy-6a,7-dihydroindeno[2,1-c]chromen-9(6H)-one]: the IC50 in assay [1] was found to be 87.9 ± 19.7 µM. The “Inhibition of the P RNA reaction” value with P RNA is listed as “not the P RNA alone”.
Regarding `O=C1C=CC(=O)c2c(O)cccc21` [Juglone, 5-hydroxy-1,4-naphthoquinone], the IC50 in assay [1] is 11.9 ± 1.7 µM. The “Inhibition of the P RNA reaction” value in the assay on P RNA is listed as “less clear behavior”.
